According to patent US11660291B2, “IL-8 inhibitors for use in the treatment of some sarcomas” (Dompe' Farmaceutici S.P.A., priority 2017, dated 2023):
“Also recorded” adds a separate entry of the source.

Tests used:
[1] = test system: OS-17 cells; experiment: Transwell migration and invasion assays, serum as chemoattractant, small molecule inhibitors; assay type: cell-based, human; conditions: 24 hours
Description: OS cells were cultured on a transwell chamber membrane, then subjected transferred to a chamber containing RPMI with 2.5% FBS (pos ctl) or RPMI alone (neg ctl). Other wells containing 2.5% FBS in the bottom chamber were treated with 1 uM sc144, 10 nM D[…], or both. After 24 hours, top chambers were scraped clean, membranes stained and cells counted. Transwell migration and invasion assays. 1×10^4 OS cells were plated into transwell inserts (either Falcon #353097 for migration or Corning #354483 for Matrigel invasion assays) containing appropriate chemotactic factors. After 24 hours of incubation, transwells were drained and upper chambers/membrane upper surfaces scraped using a polyester swab. Membranes were stained using a Dif-Quik Stain Set (Siemens #B4132-1A) and dried, then imaged on an inverted microscope. Cells were quantified using Adobe Photoshop counting tools. For experiments involving IL-6 and IL-8 chemotaxis, media contained 1% FBS in both chambers, with recombinant protein added to the bottom chamber to make 50 ng/ml IL6 (BioLegend #570804) or 100 ng/ml IL-8 (BioLegend #574204). For experiments using serum as a chemoattractant, top chambers contained RPMI only, while bottom chambers contained 1% or 2.5% serum. Where noted, 20 ug/ml of neutralizing antibodies to either IL6 (Abcam #AB6672), IL-8 (Abcam #AB18672), or both were added to both upper and lower chambers. […]

[2] = test system: pFAK; experiment: PD analysis in lung tissue, IHC for pFAK; assay type: in vivo, mouse
Description: Mice treated with injections of either DF2156A or sc144 daily were euthanized 24 hours subsequent to their 14th dose of drug. Lungs harvested from those mice were processed using standard FFPE, then sectioned and stained with IHC for either pFAK (downstream of IL-8) or pSTAT3 (downstream of IL-6).
To evaluate the functional importance of IL-6 and IL-8 pathways to OS lung metastasis, the present inventors used the xenograft models. Balb-SCID mice inoculated via tail vein with 1×10^6 luciferase-labeled OS-17 cells received treatment with sc144 (the gp130 inhibitor), DF2156A (the CXCR1/2 inhibitor), or both. Mice continued to receive treatment for 42 days, after which treatment stopped. Intravital imaging for in vivo assessment of tumor burden was performed at 14 and 24 days using standard bioluminescent techniques. […] Two mice from each single-agent treatment group were euthanized 24 hours after the 14th dose of drug to perform pharmacodynamics (PD) assessment of target inhibition.

C[C@@H](C(=O)NS(C)(=O)=O)c1ccc(OS(=O)(=O)C(F)(F)F)cc1 [DF2156A] was tested, and the “directional migration and invasion” value ([1]; serum (2.5% FBS) as chemoattractant, 1 uM sc144, 10 nM DF2156A (FIG. 2)) was “suffices to prevent directional migration and invasion”, the “amount of migration of OS cells” value ([1]; serum as chemoattractant, transwell) was “significantly decreased the amount of migration” and the “pFAK IHC staining in lung (target inhibition, downstream of IL-8)” value ([2]; 24 hours after the 14th daily dose (dosing trough)) was “sustained target inhibition; also recorded: reduced the amount of activation seen”. The “number of infiltrating cells in lung” value ([2]; 24 hours after the 14th daily dose (trough concentrations)) was “reduced”.
